Counter-ions that a name gives are not always drawn.
Target: T1, c-Myc/Max/Ebox DNA (Homo sapiens, UniProt P01106)
T1 construct: his6 (cleaved yes)
Assay: c-Myc/Max/Ebox DNA AlphaScreen Assay
Assay type: binding
Conditions: calculated IC50; free c-Myc 20 nM, his6-Max 5 nM, biotinylated Ebox oligo 10 nM; 2 hour incubation
Experimental: Compounds of the invention were assayed for c-Myc/Max/EBox activity as described in the following protocol. Human his6-c-Myc and his6-Max were used with biotinylated DNA containing a single Ebox sequence (biotin[…] (SEQ ID NO: 1)) purchased from MWG Operon. Free c-Myc was generated from his6-c-Myc through thrombin cleavage of the his6 tag (SEQ ID NO: 2). For 384-well plate assays, 10 μL of a 2× solution of free c-Myc (20 nM final), Ni^2+ coated Acceptor Beads (25 μg/ml final), and biotinylated Ebox oligo (10 nM final) were added to 384-well plates with a Biotek EL406 liquid handler. 50 nL of compounds from stock plates were added by pin transfer using a Janus Workstation (PerkinElmer), allowing the compounds to interact with c-Myc prior to c-Myc binding with Max. In the current assay, DMSO was not allowed to exceed 2% v/v of the assay. 10 μl of 2× master mix containing streptavidin-coated donor beads (25 μg/ml final) and his6-Max (5 nM) were added. AlphaScreen measurements were performed on an Envision plate reader (PerkinElmer) utilizing the manufacturer's protocol.
Both master mixes were made in room temperature assay buffer (50 mM HEPES, 150 mM NaCl, 0.2% w/v BSA, 0.02% w/v Tween20, 40 μg/ml glycogen, 500 μM DTT, pH 8.0, wherein both DTT and glycogen were added fresh). Alpha beads were added to respective master solutions. All subsequent steps were performed in low light conditions. Solution 1: 2× solution of components with final concentrations of c-Myc Ni-coated Acceptor Beads (25 μg/ml), and biotinylated Ebox oligo (10 nM). Solution 2: 2× solution of streptavidin-coated donor beads (25 μg/ml final) and his6-Max 10 μL. Solution 1 was added to 384-well plate (AlphaPlate-384, PerkinElmer) with Biotek EL406 liquid handler and the plates were centrifuged very briefly. 50 nL of compounds from stock plates were added by pin transfer using a Janus Workstation. Solution 2 (10 μL) was added with the liquid handler. Plates were sealed with foil to block light exposure and prevent evaporation. Plates were very briefly centrifuged followed by 2 hour incubation. AlphaScreen measurements were performed on an Envision 2104 utilizing the manufacturer's protocol. Excitation was at 680 nm for donor bead release of singlet oxygen and emission was read with a bandpass filter from 520-620 nm. Glycogen: Roche Diagnostics #10901393001. Plate 1536: Perkin Elmer, 6004350. Plate 384: Perkin Elmer, 6005350. Nickel-His Alpha Beads: 6760619R. The data from this assay are summarized in Table 2 below (Myc/Max/DNA Activity), where “A” represents a calculated IC50 of less than 500 nM; “B” represents a calculated IC50 of between 500 nM and 5 μM; “C” represents a calculated IC50 of between 5 μM and 10 μM; “D” represents a value of greater than 10 μM, and “NT” represents a compound for which an assay result was not obtained.

T1 sequence (P01106 whole entry): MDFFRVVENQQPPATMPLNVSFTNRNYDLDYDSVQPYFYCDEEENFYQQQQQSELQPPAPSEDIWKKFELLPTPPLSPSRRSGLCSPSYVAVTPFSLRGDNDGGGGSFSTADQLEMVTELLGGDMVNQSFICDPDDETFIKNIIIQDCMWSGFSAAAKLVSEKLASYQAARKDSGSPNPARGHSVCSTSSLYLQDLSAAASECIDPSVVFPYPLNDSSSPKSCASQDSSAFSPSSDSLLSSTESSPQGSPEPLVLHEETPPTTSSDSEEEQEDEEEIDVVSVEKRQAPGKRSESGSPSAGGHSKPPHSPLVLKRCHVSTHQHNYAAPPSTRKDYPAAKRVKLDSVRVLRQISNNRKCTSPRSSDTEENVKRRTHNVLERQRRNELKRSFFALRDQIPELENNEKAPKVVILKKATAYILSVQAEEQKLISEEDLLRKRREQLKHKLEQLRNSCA

Compound | IC50 [nM]
CC(=O)Nc1sc2c(c1-c1nc(-c3ccccc3)cs1)CCNC2 [Compound 100, N-(3-(4-phenylthiazol-2-yl)-4,5,6,7-tetrahydrothieno[2,3-c]pyridin-2-yl)acetamide] | > 10000
CC(C)NCCC(=O)Nc1sc2c(c1-c1nc(C(=O)O)cs1)CCNC2 [Compound 101, 2-(2-(3-(isopropylamino)propanamido)-4,5,6,7-tetrahydrothieno[2,3-c]pyridin-3-yl)thiazole-4-carboxylic acid] | 500 to 5000
CC(C)NCCC(=O)Nc1sc2c(c1-c1nc(-c3cccnc3)cs1)CCNC2 [Compound 103] | < 500
CC(C)NCCC(=O)Nc1sc2c(c1-c1nc(-c3ccccn3)cs1)CCNC2 [Compound 104, 3-(Isopropylamino)-N-(3-(4-(pyridin-2-yl)thiazol-2-yl)-4,5,6,7-tetrahydrothieno[2,3-c]pyridin-2-yl)propanamide] | < 500
COCCNCCC(=O)Nc1sc2c(c1-c1nc(-c3ccccn3)cs1)CCNC2 [Compound 110] | 500 to 5000
CC(C)NCCC(=O)Nc1sc2c(c1-c1nc(C(=O)Nc3ccccc3)cs1)CCNC2 [Compound 113, 2-(2-(3-(isopropylamino)propanamido)-4,5,6,7-tetrahydrothieno[2,3-c]pyridin-3-yl)-N-phenylthiazole-4-carboxamide] | > 10000
CC(C)NCCC(=O)Nc1sc2c(c1-c1nc(-c3cnn(C)c3)cs1)CCNC2 [Compound 114] | < 500
CC(C)NCCC(=O)Nc1sc2c(c1-c1nc(-c3cncc(F)c3)cs1)CCNC2 [Compound 115] | < 500
Cc1cn(-c2csc(-c3c(NC(=O)CCNC(C)C)sc4c3CCNC4)n2)cn1 [Compound 117] | 500 to 5000
COc1cncc(-c2csc(-c3c(NC(=O)CCNC(C)C)sc4c3CCNC4)n2)c1 [Compound 119] | < 500
Cc1cncc(-c2csc(-c3c(NC(=O)CCNC(C)C)sc4c3CCNC4)n2)c1 [Compound 122] | < 500
Cc1ccncc1-c1csc(-c2c(NC(=O)CCNC(C)C)sc3c2CCNC3)n1 [Compound 123] | 500 to 5000
CC(C)NCCC(=O)Nc1sc2c(c1-c1nc(C(=O)Nc3cccnc3)cs1)CCNC2 [Compound 124, 2-(2-(3-(Isopropylamino)propanamido)-4,5,6,7-tetrahydrothieno[2,3-c]pyridin-3-yl)-N-(pyridin-3-yl)thiazole-4-carboxamide] | < 500
CC(C)NCCC(=O)Nc1sc2c(c1-c1nc(C3=CCNCC3)cs1)CCNC2 [Compound 126] | < 500
COc1ncccc1-c1csc(-c2c(NC(=O)CCNC(C)C)sc3c2CCNC3)n1 [Compound 127] | < 500
CC(C)NCCC(=O)Nc1sc2c(c1-c1nc(-c3cncnc3)cs1)CCNC2 [Compound 128] | < 500
CC(C)NCCC(=O)Nc1sc2c(c1-c1nc(-c3ccc[nH]c3=O)cs1)CCNC2 [Compound 129] | < 500
CC(C)NCCC(=O)Nc1sc2c(c1-c1nc(C3=CCOCC3)cs1)CCNC2 [Compound 130, N-(3-(4-(3,6-Dihydro-2H-pyran-4-yl)thiazol-2-yl)-4,5,6,7-tetrahydrothieno[2,3-c]pyridin-2-yl)-3-(isopropylamino)propanamide dihydrochloride] | 500 to 5000

— patent US11274103B2, “Compounds for the modulation of MYC activity” (Syros Pharmaceuticals, Inc., priority 2016, dated 2022)
